Results: patent US20060222628A1, “Gallium complexes of 3-hydroxy-4-pyrones to treat infection by intracellular prokaryotes and DNA viruses” (priority 1999, published 2006)

Columns and labels:
[1] = Stability of the 3:1 complex in aqueous solutions at various pH by ultraviolet spectroscopy; format: physicochemical; details: 1.0×10^−2 M in water, 25° C.
Procedure: The pH was adjusted by adding either 1N HCl or 1N Na2CO3. The stability of the complex was determined using ultraviolet spectroscopy over the region 200-450 nm at 25° C. Several absorption peaks are observed in this range, including those at about 212-217 nm, 248 nm, 273 nm, 318 nm, and 385 nm. An isobesic point occurs over much of the pH range at about 290 nm. In the very dilute solutions (2.5×10^−6 M), the neutral 3:1 complex appears to be stable from about pH 4.5 to 9.5. For the less dilute solutions (1.0×10^−2 M), the determination was more difficult due to the very high absorbance.

[2] = format: physicochemical
Procedure: The material forms white to pale beige monoclinic crystals with unit cell parameters of about a=7.899(1)Å, b=8.765(1)Å, c=31.626(2)Å, beta=103.253(7) degrees, V=2131 Å^3, based on powder x-ray diffraction analysis. The solubility of this compound is measured as about 5 millimolar in distilled deionized water at 23° C. Crystallization from other solvents or under other conditions may produce other crystal structures. Under some conditions, water or other solvents may also be incorporated into the structure. […] About 5.5 grams of powdered anhydrous sodium carbonate are added, and stirring continues for additional 12 minutes. […] The remaining crystalline solid is the 3:1 maltol gallium composition. […] The solubility of this composition is measured as about 24 millimolar in distilled deionized water at 23° C.

[3] = system: hepatitis B; experiment: Clinical evaluation in co-infection by HIV and hepatitis B: hepatitis B; format: in vivo, human
Procedure: Gallium maltolate is evaluated clinically for efficacy in treating hepatitis B co-infection of a HIV-1 patients. In addition to the methods used in Example 5 for evaluating the HIV disease, the methods employed in the clinical studies discussed in the following references are used in the evaluation: Yao et al. (1997), “Treatment of Chronic Hepatitis B: New Antiviral Therapies,” Curr. Gastroenterol. Rep. 1(1):20-26; Hoofnagle et al. (1997), “New therapies for chronic hepatitis B,” supra.
Patients are treated once per day with gelatin capsules containing gallium maltolate. The population of patients with hepatitis B and HIV infection are first divided into two subpopulations groups based on CD4+ counts (above 350/mm^3 and below 350/mm^3). […]
In each subpopulation, the first group's four subgroups from each subpopulation (above 350/mm^3 and below 350/mm^3) additionally receive the gallium maltolate dose together with 10 million IU interferon by injection once per day. […] Patients are monitored for HIV disease precisely as described in Example 5. Patients are also medically monitored for liver disease, including liver function testing and examination for medical symptoms of hepatitis B infection throughout the study, with careful attention to the possibility that the drugs themselves may cause some liver disease and elevate the liver function tests. […]

[4] = system: Epstein-Barr Virus (EBV); experiment: Clinical evaluation for Epstein-Barr virus (EBV) infection; format: in vivo, human
Procedure: Some of the methods employed in the clinical studies discussed in the following references are used in the evaluation: Schneider et al. (2000), “Regression of Epstein-Barr virus-associated lymphoproliferative disorders in patients with acquired immunodeficiency syndrome during therapy with foscarnet,” Ann. Hematol. 79(4):214-6. Patients with EBV infection are treated once per day with gelatin capsules containing gallium maltolate. The patients are divided randomly and blindly into two approximately equal groups with four approximately equal subgroups that receive either 0 (placebo), 250, 500, or 750 mg/day gallium maltolate for about six months. The first group receive the gallium maltolate dose together with 500 mg ganciclovir twice per day. The second group receive the gallium maltolate dose together with 5500 mg foscarnet, IV infusion over 1.5-2 hr., twice per day. Patients are medically monitored for resolution of EBV infection, with histopathologic examination of hematologic smears to assess characteristic cells an lymphocyte levels. In addition blood serum samples are obtained from the patients at days 1, 3, 7, 10, 14, 17, 21, 24 and 28 and are assayed for EBV particles by routine methods and for EBV DNA (viral load assay) using PCR.

SMILES: Cc1occc(=O)c1[O-].Cc1occc(=O)c1[O-].Cc1occc(=O)c1[O-].[Ga+3] [gallium maltolate, tris(3-hydroxy-2-methyl-4H-pyran-4-onato)gallium]
- Stability region (pH) [1]: very similar to that of the highly dilute solution, possibly slightly wider
- Solubility [2]: about 24 millimolar
- Efficacy in treating hepatitis B infection in combination ([3]; HIV co-infected patients on HAART, with interferon-alpha or lamuvidine): effective in combination with interferon and interferon plus nucleoside analogs
- Synergy in treating hepatitis B infection ([3]; with interferon and interferon plus nucleoside analogs): synergistic with both
- Efficacy of combination with ganciclovir or foscarnet versus single agents ([4]; EBV): more effective than either agent alone
- Synergy with nucleoside analogs ([4]; EBV, MacSynergy II): synergy of gallium with both nucleoside analogs is also demonstrated
- Efficacy in treating EBV infection ([4]; HIV negative patients, 250-750 mg/day oral with ganciclovir or foscarnet): effective for treating EBV infection, including recurrent sores as well as more serious systemic disease
